Test results from patent US20120071493A1, “SUBSTITUTED 8-SULFONYL-2,3,4,5-TETRAHYDRO-1H-GAMMA-CARBOLINES, LIGANDS AND PHARMACEUTICAL COMPOSITION; METHOD FOR THE PRODUCTION AND USE OF SAME” (priority 2009, published 2012).

Columns and labels:
[1] = target: T1, recombinant human 5-HT6 receptor (Homo sapiens, UniProt P50406); assay: Antagonistic activity towards serotonin 5-HT6 receptors, cAMP cell function experiment; format: cell-based; details: HEK 293 cells expressing recombinant human 5-HT6 receptor; cAMP response to 10 μM serotonin; read-out: IC50, ability to block serotonin 5-HT6 receptors in the setting of cell function experiments
T1 construct: host or cells: HEK 293 cells with tetracycline-induced T-Rex system (Invitrogen)
T1 sequence (P50406 whole entry): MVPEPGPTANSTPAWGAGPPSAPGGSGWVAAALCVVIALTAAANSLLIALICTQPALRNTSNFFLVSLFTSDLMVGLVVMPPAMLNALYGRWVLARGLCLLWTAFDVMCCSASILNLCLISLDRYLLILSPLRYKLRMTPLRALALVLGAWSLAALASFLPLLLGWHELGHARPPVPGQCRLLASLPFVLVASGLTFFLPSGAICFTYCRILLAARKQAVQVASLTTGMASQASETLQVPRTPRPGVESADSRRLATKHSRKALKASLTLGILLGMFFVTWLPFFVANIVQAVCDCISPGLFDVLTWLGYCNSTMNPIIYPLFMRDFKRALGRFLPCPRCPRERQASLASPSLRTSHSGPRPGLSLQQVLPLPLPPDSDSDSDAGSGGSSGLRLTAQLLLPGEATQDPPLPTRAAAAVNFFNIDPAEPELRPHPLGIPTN
Procedure: Determination of antagonistic activity of substituted 8-sulfonyl-2,3,4,5-tetrahydro-1H-γ-carbolines of the general formula 1 towards serotonin 5-HT6 receptors. HEK 293 cells with tetracycline-induced T-Rex system (Invitrogen, USA) consistently expressing recombinant human 5-HT6 receptor, production of Etogen Scientific (USA), were used. The cells were grown in DMEM/10% FBS/1% AAS medium with Blasticidine S and Zeocin (both—Invitrogen, USA). According to the method worked up by the producer of T-Rex system tetracycline hydrochloride was added to the medium with the cells for the purpose of activation of 5-HT6 receptor expression. The cells were embedded in 96-well plates (30,000-40,000 cells per well) and incubated in 5%-CO2 incubator at 37° C. for 24 hs. Before experiments cells medium was replaced by Hank's balanced salt solution (HBSS), comprising 0.137 M NaCl, 5.4 mM KCl, 0.25 mM Na2HPO4, 0.44 mM KH2PO4, 1.3 mM CaCl2, 1.0 mM MgSO4, 5 mM HEPES (pH 7.4), 0.05% BSA and 1 mM IBMX. The tested compounds of general formula 1 were added to the cells in various concentrations. After incubation of the cells for 15 min at room temperature serotonin was added to them up to final concentration of 10 μM and incubation was continued for 30 min. The newly formed cAMP was determined by reagent kit LANCE cAMP Kit, according to the method described by the kit manufacturer […] (PerkinElmer, CIIIA). […] The data given testify that novel γ-carbolines of the general formula 1 are effective serotonin 5-HT6 receptor antagonists. Some of γ-carbolines of the general formula 1 have IC50<0.5 μM in the setting of cell function experiments (IC50—antagonist concentration blocking 5-HT6 receptors for 50%).

[2] = tested on: male mice of BALB/c line; assay: Passive Avoidance of mice in the Shuttle Chamber, memory disturbed by Scopolamine; format: in vivo; details: 0.2 mg/kg, 30 minutes before training; retention after 24 hours
Procedure: 18.1.1. […] Experiments were carried out in aged male mice of BALB/c line weighing 20-25 grams or male rats of Vistar line weighing 200-250 g. A shuttle chamber (Ugo Basile, Italy) consisted of two sections was used. […] The sections were connected through a hole which could be overlapped by vertical door. The floor of the dark section was made of transverse metal bars on which DC current impulses could be fed. On the first day of experiment 30 minutes before training mice were injected […] with Scopolamine which causes memory disturbance. The animals of trial group were additionally injected with a compound of the general formula 1, for example, compound 1.1.1(4).HCl or 1.2.1(3).HCl, in doses of 0.2 mg/kg. The animals of control group were injected with physiological solution. Each group consisted of 8 animals. The animals were placed in the light section, and latent period of the first entry into the dark chamber was registered. Then the vertical door was closed and the animal was punished by 0.6 mA DC current for 3 seconds. After that the animal was taken back to its home cage. In 24 hours the same animal was placed again in the light section of the shuttle chamber and latent period of its first entry into the dark section, the total time of its stay in the light section and the number of entries into dark section was registered. Each monitoring lasted for 5 minutes. […]

[3] = tested on: male mice of BALB/c line; assay: Mice Behavior in the Elevated Plus Maze test; format: in vivo; details: 0.05 mg/kg and 0.2 mg/kg intraperitoneally
Procedure: The experiments were carried out in aged male mice of BALB/c line weighing about 25 g. Animals were housed 5-7 per cage with water and food available. None of animals was acquainted with experimental set-up before. Each experimental group included 8 animals.
The procedure used was described earlier by Lister (Lister R. G. The use of a plus-maze to measure anxiety in the mouse. Psychopharmacology, 1987; 92:180-185). Plexiglass set-up consisted of two opened arms of 30×5 cm size and two closed arms of 30×5×15 cm size was used. Side arms were closed with transparent plexiglass and were connected with central zone via platform of 5×5 cm size. Opened arms, central platform and floor were made of black plexiglass. The set-up was mounted on a metallic base which was placed 38.5 cm above floor level.
Animals were injected intraperitoneally with placebo, Buspirone (5 mg/kg, 30 minutes before training), Lorazepam (0.05 mg/kg, 60 minutes before training) or with one of the compounds of the general formula 1, for example, compound 1.1.1(4).HCl or compound 1.2.1(3).HCl in doses 0.05 mg/kg and 0.2 mg/kg. Buspirone and Lorazepam were introduced in maximal effective dose, at which side sedative effect and general decrease of exploratory activity (number of arm entries during the test) were not observed yet.
Each mouse was placed in maze center with its head towards the opened arm. Over a period of 5 minutes the sequence and duration of arm entries were registered by means of computer program. Criterion for entry is location of all animal's paws inside the arm at the same time. Index of preference was calculated as ratio of the time spent by animal in opened arms as well as the number of entries into opened arms to the total time spent by it in opened and closed arms or, respectively, to the whole number of entries to arms of both types. The number of defecations left by mouse was regarded as additional parameter characterizing anxiety state.

SMILES	IC50 [1] [nM]	effect on amnesia caused by Scopolamine, passive avoidance [2]	anxiolytic effect in elevated plus maze [3]
CN1CCc2c(c3cc(S(=O)(=O)c4ccccc4)ccc3n2C)C1.Cl [1.1.1(4)•HCl, 2,5-dimethyl-8-(phenylsulfonyl)-2,3,4,5-tetrahydro-1H-γ-carboline hydrochloride]	78	decrease amnesia	well-marked anxiolytic effect
CN1CCc2[nH]c3ccc(S(=O)(=O)Nc4cccc(F)c4)cc3c2C1.Cl [1.2.1(3)•HCl, 2-methyl-2,3,4,5-tetrahydro-1H-γ-carboline-8-sulfonic acid 3-fluorophenyl amide hydrochloride]	15	decrease amnesia	well-marked anxiolytic effect
